{"source": "paper PMC8102418", "about": "(iScience, 2021)", "key": {"[1]": {"tested_on": "interaction between SRPK1 and SRSF1", "assay": "In vitro GST pull-down of GST-SRSF1 with SRPK1ΔNS3", "type": "binding", "conditions": "500 nM GST-SRSF1, 500 nM SRPK1, 4°C 3 h, SDS-PAGE, Coomassie Blue"}, "[2]": {"target": "SRPK1 (Homo sapiens, UniProt Q96SB4)", "assay": "In vitro radioactive kinase assay, SRSF1 phosphorylation by SRPK1", "type": "biochemical", "conditions": "50 μM [32P]ATP, different inhibitor concentrations"}, "[3]": {"target": "SRPK1 (SRPK1ΔNS3) (Homo sapiens, UniProt Q96SB4)", "assay": "Isothermal titration calorimetry", "type": "binding", "conditions": "SD"}, "[4]": {"tested_on": "SRPK2", "conditions": "ref Batson et al., 2017; cited from earlier work"}, "[5]": {"tested_on": "CLK1", "conditions": "ref Batson et al., 2017; cited from earlier work"}}, "note": "No end group written: not given here."}
{"compound": "GRKKRRQRRRPQSWQDLKDH [control peptide]", "values": [{"measurement": "inhibition of the binding of GST-SRSF1 and SRPK1ΔNS3 (GST pull-down)", "setting": "[1]", "value": "did not inhibit"}, {"measurement": "inhibition of SRSF1 phosphorylation by SRPK1 (in words)", "setting": "[2]", "value": "did not inhibit"}]}
{"compound": "RERARTR [7-mer, R-E-R-A-R-T-R]", "values": [{"measurement": "Kd", "setting": "[3]", "value": "112 ± 9.9", "unit": "µM"}]}
{"compound": "O=C(Nc1cc(C(F)(F)F)ccc1N1CCN(Cc2ccccn2)CC1)c1ccc(-c2ccncc2)o1", "note": "[SPHINX31]", "values": [{"measurement": "affinity for SRPK2 lower than that of SRPK1", "setting": "[4]", "value": 50, "unit": "fold"}, {"measurement": "affinity for CLK1 lower than that of SRPK1", "setting": "[5]", "value": 50, "unit": "fold"}]}
